Measurements: patent US5607836A, “Methods of detecting compounds which bind to the P2U receptor” (The Curators of the University of Missouri, priority 1995, dated 1997)

Key:
[1] = molecular target: T1, human P2U receptor (Homo sapiens, UniProt P41231); test: intracellular calcium by fura-2 fluorescence in 1321N1 human astrocytoma cells expressing the cloned HP2U (LHP2USN); assay type: cell-based; settings: for [Ca^2+ ]i in absence of extracellular Ca^2+: HP2U-1321N1 cells
Description: (§1) Heteroloqous Expression. A retroviral vector-containing plasmid, pLHP2USN, was constructed by insertion of the cloned CF/T43 cDNA into the EcoRI and XhoI sites of pLXSN (A. Miller and G. Rosman, Biotechniques 7, 980 (1989)). An amphotrophic packaging cell line, PA317, was used to produce the LHP2USN retroviral vector and a control vector containing Neor only (LSN). Clonal human astrocytoma cells 1321N1, UNC strain, generously provided by T. K. Harden (UNC, Chapel Hill, N.C.), were plated at 150,000 cells per 60-mm dish and infected with LHP2USN or LSN (2 hr, 4 ug/ml Polybrene) and after 48 hr selected with 600 ug/ml G418 (Life Technologies, Inc., Gaithersburg, Md., U.S.A.). To assay for receptor activity, intracellular calcium concentration was measured in confluent cells on coverslips by fura-2 fluorescence using microspectrofluorimetry as previously described (S. Mason et al., Br. J. Pharmacol. 103, 1649 (1991)). Measurement of cell inositol phosphate formation was as described by H. Brown et al., Mol. Pharmacol. 40, 648 (1991), in accordance with known techniques.
(§2) A retrovirus expression system was employed to study the cloned CF/T43 HP2U cDNA in 1321N1 human astrocytoma cells. The effect of extracellular nuceotides on intracellular calcium, as measured by fura-2 fluorescence, was assessed in CF/T43 cells, uninfected 1321N1 cells, and 1321N1 cells infected with retroviral vector containing either the cloned HP2U or no insert (LSN).
To examine the pharmacological specifity of the HP2U clone expressed in 1321N1 cells, concentration-effect curves were generated for nucleotides and structural analogues active at P2X, P2Y and P2U receptors (data not shown). […] These concentration-effect relations are very similar to those reported for heterologously expressed murine P2U (Lustig, et al., supra) and virtually indistinguishable from data (not shown) generated for the endogenous CF/T43 and HT-29 receptors. Clearly, the agonist specifities fit the definition of the P2U receptor.

[2] = tested on: 1321N1 human astrocytoma cells (uninfected or LSN-infected); test: intracellular calcium by fura-2 fluorescence in uninfected or LSN-infected 1321N1 control cells; assay type: cell-based; settings: uninfected or LSN-infected controls
Description: as §1, §2

[3] = molecular target: T1, human P2U receptor; test: inositol phosphate formation in 1321N1 cells expressing LHP2USN; assay type: cell-based; settings: 1321N1 cells expressing LHP2USN pretreated with apyrase
Description: as §1
To test this possibility more directly, we measured inositol phosphate formation. […] We hypothesized that during the lengthy labeling period 1321N1 cells released 5'-nucleotides into the medium in quantities sufficient to "self-activate" the receptor. […] Thus, it appears the cells are persistently stimulated by nucleotides in an autocrine fashion. The mode of release of nucleotides from the astrocytoma cells and the biological consequences of the persistent autocrine activation are unknown. To facilitate comparison with controls, the inositol phosphate studies were performed on cells pretreated with apyrase.

[4] = molecular target: T2, histidine-tagged P2U receptor (P2HIS) (Mus musculus, UniProt P35383); test: cytoplasmic free calcium in K562 cells stably expressing histidine-tagged P2U receptor (P2HIS); assay type: cell-based, murine
Description: Cytoplasmic Free Calcium Measurements. Cells were sedimented at 200×g for 5 min at room temperature and washed once with 10 ml of Hepes-bufferedsaline (20 mM Hepes, pH 7.4, 120 mM NaCl, 5 mM KCl, 1 mM MgCl2, and 1 mM CaCl2). Washed cells were suspended in Hepes-buffered saline at 5×10^5 cells/ml, and stored (for up to 4 h) at 37° C. The concentration of cytoplasmic free calcium, [Ca^2+ ]i, was measured by dual-excitation spectrofluorometric analysis of cells loaded with fura-2, a fluorescent probe for calcium.
Construction and Purification of the Histidine-tagged P2U Receptor (P2HIS). To produce P2HIS, 70 pmoles of the primers CGCACCATTGCCTTGGTAC (SEQ ID NO:3)(which contains a BstXI site) and […] (SEQ ID NO:4) (which contains an EcoRV site, stop codon, and the hexahistidine coding sequence) were incubated with 50 ng of pP2R, 20 nmoles of each dNTP, 1X reaction buffer (20 mM Tris-HCl, pH 8.2, 10 mM KCl, 6 mM (NH4)2 SO4, 1.5 mM MgCl2, and 0.1% Triton X-100), and H2 O to bring the reaction mixture to a 100 μl volume. […] The reaction mixture was overlayed with 50 μl of mineral oil and subjected to 30 PCR cycles (95° C. for 1.5 min, 55° C. for 1.5 min, and 72° C. for 2 min). The PCR product, a single 400 bp band, was subcloned into the unique BstXI-EcoRV restriction site of pP2R to generate pP2HIS. […]

[5] = molecular target: T2, histidine-tagged P2U receptor (P2HIS); test: PIP2 in K562 cells stably expressing P2HIS; assay type: cell-based, murine
Description: Construction and Purification of the Histidine-tagged P2U Receptor (P2HIS). To produce P2HIS, 70 pmoles of the primers CGCACCATTGCCTTGGTAC (SEQ ID NO:3)(which contains a BstXI site) and […] (SEQ ID NO:4) (which contains an EcoRV site, stop codon, and the hexahistidine coding sequence) were incubated with 50 ng of pP2R, 20 nmoles of each dNTP, 1X reaction buffer (20 mM Tris-HCl, pH 8.2, 10 mM KCl, 6 mM (NH4)2 SO4, 1.5 mM MgCl2, and 0.1% Triton X-100), and H2 O to bring the reaction mixture to a 100 μl volume. […] The reaction mixture was overlayed with 50 μl of mineral oil and subjected to 30 PCR cycles (95° C. for 1.5 min, 55° C. for 1.5 min, and 72° C. for 2 min). The PCR product, a single 400 bp band, was subcloned into the unique BstXI-EcoRV restriction site of pP2R to generate pP2HIS. K562 cells with stable P2HIS expression were produced by subcloning the HindIII-NotI restriction fragment of pP2HIS encoding the histidine-taged P2U receptor cDNA into pRC/CMV and transfecting K562 cells as described for pP2R1. The composition of pP2HIS was verified by DNA sequence analysis.

[6] = molecular target: murine P2U receptor (Mus musculus, UniProt P35383); design: host or cells: Xenopus oocytes; settings: Lustig et al. 1993, cited from earlier work; for EC50: Xenopus oocytes, read-out: EC50 in Xenopus oocytes expressing the P2U receptor; for activation of the cloned murine receptor: background
Chain of murine P2U receptor (P35383 whole entry): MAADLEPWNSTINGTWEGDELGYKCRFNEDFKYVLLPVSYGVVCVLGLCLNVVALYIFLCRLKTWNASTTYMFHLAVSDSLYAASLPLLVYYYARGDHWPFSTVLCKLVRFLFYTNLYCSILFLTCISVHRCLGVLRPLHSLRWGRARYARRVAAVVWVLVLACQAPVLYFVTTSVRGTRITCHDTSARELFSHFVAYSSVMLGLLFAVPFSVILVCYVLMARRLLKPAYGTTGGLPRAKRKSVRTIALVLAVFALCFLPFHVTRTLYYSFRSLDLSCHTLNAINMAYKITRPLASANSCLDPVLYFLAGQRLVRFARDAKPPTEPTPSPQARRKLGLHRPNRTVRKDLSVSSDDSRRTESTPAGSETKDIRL

T2 sequence (P35383 whole entry): as above
T1 sequence (P41231 whole entry): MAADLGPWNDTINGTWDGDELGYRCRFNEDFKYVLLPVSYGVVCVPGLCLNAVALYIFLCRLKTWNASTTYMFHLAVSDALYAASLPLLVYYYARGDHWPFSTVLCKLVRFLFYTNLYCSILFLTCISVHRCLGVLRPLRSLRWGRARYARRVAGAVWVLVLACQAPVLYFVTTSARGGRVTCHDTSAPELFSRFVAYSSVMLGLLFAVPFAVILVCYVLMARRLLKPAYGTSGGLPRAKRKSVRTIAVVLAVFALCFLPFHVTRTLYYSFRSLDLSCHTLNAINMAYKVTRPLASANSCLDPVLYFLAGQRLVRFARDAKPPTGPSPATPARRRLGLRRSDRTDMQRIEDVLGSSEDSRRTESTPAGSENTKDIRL

Row | SMILES | EC50 [1] [nM] | [Ca^2+ ]i response of 1321N1 cells expressing the LHP2USN vector ([1]; Ca2+-free and Ca2+-containing media) | [Ca^2+ ]i in absence of extracellular Ca^2+ [1] | [Ca^2+ ]i response of uninfected or LSN-infected 1321N1 cells [2] | inositol phosphate accumulation [3] | [Ca^2+ ]i in K562 cells stably expressing P2HIS [4] | PIP2 in K562 cells stably expressing P2HIS [5] | EC50 [6] [nM] | activation of the cloned murine receptor [6] | efficacy / effect in concentration-effect curves ([1]; HP2U clone expressed in 1321N1 cells)
1 | Nc1ncnc2c1ncn2[C@@H]1O[C@H](COP(=O)(O)OP(=O)(O)OP(=O)(O)O)[C@@H](O)[C@H]1O [ATP] | 1000 | the same result observed with UTP | raised [Ca^2+ ]i | the same result observed with UTP | increased inositol phosphate accumulation | increase in [Ca^2+ ]i | decrease in PIP2 | ~1000 | activated | –
2 | O=c1ccn([C@@H]2O[C@H](COP(=O)(O)OP(=O)(O)OP(=O)(O)O)[C@@H](O)[C@H]2O)c(=O)[nH]1 [UTP] | 1400 | – | raised [Ca^2+ ]i | no effect | increased inositol phosphate accumulation | increase in [Ca^2+ ]i | decrease in PIP2 | ~1000 | activated | slightly more efficacious
